The values below come from publication PMC5665643, “CHIP as a membrane-shuttling proteostasis sensor” (eLife, 2017).

The test system of experiment [1] is PI4KIII. The note with it: at higher concentrations; ref Nakanishi et al., 1995; cited from earlier work.
Experiment [2] has as its system EGFP-CHIP-K30A; type III phosphatidylinositol-4 kinases (PI4KIII). In words: Undocking of EGFP-CHIP-K30A from membranes by PI4KIII inhibitors. Format: cell-based, murine. The note with it: same cells followed upon addition of inhibitor; ***p<0.001, t-test; N = 3. An excerpt: Phospholipase D inhibitors FIPI, VU0155069 and CAY10594 were purchased from Caymen Chemicals (Ann Arbor, MI), wortmannin from Enzo (Farmingdale, NY), PI4KIIIβ inhibitor IN-10 from MedChem Express (Monmouth Junction, NJ), HSP70 inhibitor VER-155008 from Sigma-Aldrich (St. Louis, MO), HSP90 inhibitor 17-(Allylamino)−17-demethoxygeldanamycin (17-AAG) from Biomol (Germany). 1,2-dioleoyl-sn-glycero-3-phosphocholine (DOPC) and 1,2-dipalmitoyl-sn-glycero-3-phosphate (phosphatidic acid, PA) were from Avanti Polar Lipids (Alabaster, AL), 1,2-dipalmitoyl-sn-glycero-3-phosphoinositol-4-phosphate (phosphadtidylinositol-4-phosphate, PI4P) was from Echelon Bioscience (Salt Lake City, UT). All other chemicals were from Sigma-Aldrich if not indicated otherwise. […]
For microscopy analysis of CHIP localization, samples were not fixed. […] For quantification, fields of view were chosen randomly. […]
Membrane localization and Golgi morphology were analyzed manually using ImageJ from following numbers of cells (average of at least three independent experiments): 92 (Figure 1a), 142 (Figure 1d), 90 (Figure 1—figure supplement 1b), 125 (Figure 1—figure supplement 1c), 149 (Figure 1—figure supplement 1d), 84 (Figure 3c), 130 (Figure 5a), 206 (Figure 5g), 240 (Figure 5h), 93 (Figure 5—figure supplement 1d), and 137 (Figure 5—figure supplement 1j). […]

On to `COC[C@H]1OC(=O)c2coc3c2[C@@]1(C)C1=C(C3=O)[C@@H]2CCC(=O)[C@@]2(C)C[C@H]1OC(C)=O` [wortmannin], for which the PI4KIII inhibition result in experiment [1] is listed as “inhibits PI4KIII if used at higher concentrations”. Besides, the “undocking of EGFP-CHIP-K30A from cellular membranes, wortmannin” value in experiment [2] was “causes an acute undocking of EGFP-CHIP-K30A from cellular membranes”.
